The values that follow come from patent publication US10045983B2, “Heteroaryl pyridone and aza-pyrodine compounds” (Genentech, Inc., priority 2011, dated 2018).

The nature of the assay: CD69 Whole Blood Assay (CD69 Hu Blood FACS). The note with it: Lymphocyte; human whole blood, anti-IgM activated B lymphocytes, FACS; IC70; Table 2 (unit inferred); read-out: CD69 Hu Blood FACS (IC70). The format is cell-based, human. In outline: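 Human whole blood stimulated by crosslinking surface IgM with goat F(ab′)2 anti-human IgM; inhibition of CD69 expression on B lymphocytes measured by flow cytometry.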
Regarding `CN1CCn2nc(Nc3cc(-c4ccnc(N5CCc6c(c(F)c7n6CCCC7)C5=O)c4CO)cn(C)c3=O)cc2C1` [Example 241, 10-fluoro-2-[3-(hydroxymethyl)-4-[1-methyl-5-[(5-methyl-6,7-dihydro-4H-pyrazolo[1,5-a]pyrazin-2-yl)amino]-6-oxo-3-pyridyl]-2-pyridyl]-3,4,6,7,8,9-hexahydropyrido[3,4-b]indolizin-1-one], the IC70 came to 0.19 µM.
Take `Cc1cc(Nc2cc(-c3ccnc(N4CCc5c(cc6n5CCCC6)C4=O)c3CO)cn(C)c2=O)nn1C` [Example 242, 2-[4-[5-[(1,5-dimethylpyrazol-3-yl)amino]-1-methyl-6-oxo-3-pyridyl]-3-(hydroxymethyl)-2-pyridyl]-3,4,6,7,8,9-hexahydropyrido[3,4-b]indolizin-1-one]: the IC70 came out at 1.2 µM.
With `Cn1cc(-c2ccnc(N3CCn4c(cc5c4CCCC5)C3=O)c2CO)cc(Nc2cn(C3CCN(C4COC4)CC3)cn2)c1=O` [Example 243, 2-[3-(hydroxymethyl)-4-[1-methyl-5-[[1-[1-(oxetan-3-yl)-4-piperidyl]imidazol-4-yl]amino]-6-oxo-3-pyridyl]-2-pyridyl]-3,4,6,7,8,9-hexahydropyrazino[1,2-a]indol-1-one] the figure was 2.8 µM; with `CN1CC(c2ccc(Nc3cc(-c4ccnc(N5CCc6c(cc7n6CCCC7)C5=O)c4CO)cn(C)c3=O)nc2)C1` [Example 244, 2-[3-(hydroxymethyl)-4-[1-methyl-5-[[5-(1-methylazetidin-3-yl)-2-pyridyl]amino]-6-oxo-3-pyridyl]-2-pyridyl]-3,4,6,7,8,9-hexahydropyrido[3,4-b]indolizin-1-one], 0.138 µM.
With `C[C@H]1CN(C2COC2)CCN1c1ccc(Nc2cc(-c3ccnc(-n4ccc5c(cc6n5CCCC6)c4=O)c3CO)cn(C)c2=O)nc1` [Example 245, (S)-2-(3-(Hydroxymethyl)-4-(1-methyl-5-(5-(2-methyl-4-(oxetan-3-yl)piperazin-1-yl)pyridin-2-ylamino)-6-oxo-1,6-dihydropyridin-3-yl)pyridin-2-yl)-6,7,8,9-tetrahydropyrido[3,4-b]indolizin-1(2H)-one] the figure was 0.065 µM; with `Cc1cc(Nc2cc(-c3ccnc(-n4ccc5c(cc6n5CCCC6)c4=O)c3CO)cn(C)c2=O)nn1C` [Example 246, 2-[4-[5-[(1,5-dimethylpyrazol-3-yl)amino]-1-methyl-6-oxo-3-pyridyl]-3-(hydroxymethyl)-2-pyridyl]-6,7,8,9-tetrahydropyrido[3,4-b]indolizin-1-one], 1.7 µM; with `CC(=O)N1CCn2nc(Nc3cc(-c4ccnc(-n5ncc6c7c(sc6c5=O)CCCC7)c4CO)cn(C)c3=O)cc2C1` [Example 247, 3-[4-[5-[(5-acetyl-6,7-dihydro-4H-pyrazolo[1,5-a]pyrazin-2-yl)amino]-1-methyl-6-oxo-3-pyridyl]-3-(hydroxymethyl)-2-pyridyl]-6,7,8,9-tetrahydrobenzothiopheno[2,3-d]pyridazin-4-one], 0.145 µM.
With `C[C@@H]1COCCN1C(=O)c1ccc(Nc2cc(-c3ccnc(N4CCn5c(cc6c5CC(C)(C)C6)C4=O)c3CO)nn(C)c2=O)nc1` [Example 248, 3-[3-(hydroxymethyl)-4-[1-methyl-5-[[5-[(3R)-3-methylmorpholine-4-carbonyl]-2-pyridyl]amino]-6-oxo-pyridazin-3-yl]-2-pyridyl]-7,7-dimethyl-1,2,6,8-tetrahydrocyclopenta[3,4]pyrrolo[3,5-b]pyrazin-4-one] the figure was 0.0703 µM; with `C[C@@H]1COCCN1C(=O)c1ccc(Nc2cc(-c3ccnc(N4CCn5c(cc6c5CC(C)(C)C6)C4=O)c3CO)cn(C)c2=O)nc1` [Example 249, 3-[3-(hydroxymethyl)-4-[1-methyl-5-[[5-[(3R)-3-methylmorpholine-4-carbonyl]-2-pyridyl]amino]-6-oxo-3-pyridyl]-2-pyridyl]-7,7-dimethyl-1,2,6,8-tetrahydrocyclopenta[3,4]pyrrolo[3,5-b]pyrazin-4-one], 0.0177 µM; with `CC1Cn2nc(Nc3cc(-c4ccnc(N5CCn6c(cc7c6CCCC7)C5=O)c4CO)cn(C)c3=O)cc2CN1C` (centres unmarked) [Example 250, 2-[4-[5-[(5,6-dimethyl-6,7-dihydro-4H-pyrazolo[1,5-a]pyrazin-2-yl)amino]-1-methyl-6-oxo-3-pyridyl]-3-(hydroxymethyl)-2-pyridyl]-3,4,6,7,8,9-hexahydropyrazino[1,2-a]indol-1-one], 0.171 µM.
In the case of `CCn1nc(Nc2cc(-c3ccnc(N4CCn5c(cc6c5CC(C)(C)C6)C4=O)c3CO)cn(C)c2=O)cc1C` [Example 252, 3-[4-[5-[(1-ethyl-5-methyl-pyrazol-3-yl)amino]-1-methyl-6-oxo-3-pyridyl]-3-(hydroxymethyl)-2-pyridyl]-7,7-dimethyl-1,2,6,8-tetrahydrocyclopenta[3,4]pyrrolo[3,5-b]pyrazin-4-one], the 70% effect concentration (IC70) came out at 0.252 µM.
With `C[C@H]1CN(C2COC2)CCN1c1ccc(Nc2cc(-c3ccnc(N4CCn5c(cc6c5CC(C)(C)C6)C4=O)c3CO)n[nH]c2=O)nc1` [Example 253, 3-[3-(hydroxymethyl)-4-[5-[[5-[(2S)-2-methyl-4-(oxetan-3-yl)piperazin-1-yl]-2-pyridyl]amino]-6-oxo-1H-pyridazin-3-yl]-2-pyridyl]-7,7-dimethyl-1,2,6,8-tetrahydrocyclopenta[3,4]pyrrolo[3,5-b]pyrazin-4-one] the figure was 0.0164 µM; with `CC(=O)N1CCn2nc(Nc3cc(-c4ccnc(N5CCc6c(sc7c6CC(C)(C)C7)C5=O)c4CO)cn(C)c3=O)cc2C1` [Example 254, 3-[4-[5-[(5-acetyl-6,7-dihydro-4H-pyrazolo[1,5-a]pyrazin-2-yl)amino]-1-methyl-6-oxo-3-pyridyl]-3-(hydroxymethyl)-2-pyridyl]-7,7-dimethyl-1,2,6,8-tetrahydrocyclopenta[3,4]thieno[1,3-c]pyridin-4-one], 0.0373 µM; with `CC(=O)N1CCn2nc(Nc3cc(-c4ccnc(N5CCn6c7c(c(F)c6C5=O)CCCC7)c4CO)cn(C)c3=O)cc2C1` [Example 255, 2-[4-[5-[(5-acetyl-6,7-dihydro-4H-pyrazolo[1,5-a]pyrazin-2-yl)amino]-1-methyl-6-oxo-3-pyridyl]-3-(hydroxymethyl)-2-pyridyl]-10-fluoro-3,4,6,7,8,9-hexahydropyrazino[1,2-a]indol-1-one], 0.094 µM.
With `C[C@H]1COCCN1C(=O)c1ccc(Nc2cc(-c3ccnc(N4CCn5c(cc6c5CC(C)(C)C6)C4=O)c3CO)nn(C)c2=O)nc1` [Example 256, 3-[3-(hydroxymethyl)-4-[1-methyl-5-[[5-[(3 S)-3-methylmorpholine-4-carbonyl]-2-pyridyl]amino]-6-oxo-pyridazin-3-yl]-2-pyridyl]-7,7-dimethyl-1,2,6,8-tetrahydrocyclopenta[3,4]pyrrolo[3,5-b]pyrazin-4-one] the figure was 0.08 µM; with `C[C@H]1COCCN1C(=O)c1ccc(Nc2cc(-c3ccnc(N4CCn5c(cc6c5CC(C)(C)C6)C4=O)c3CO)cn(C)c2=O)nc1` [Example 257, 3-[3-(hydroxymethyl)-4-[1-methyl-5-[[5-[(3 S)-3-methylmorpholine-4-carbonyl]-2-pyridyl]amino]-6-oxo-3-pyridyl]-2-pyridyl]-7,7-dimethyl-1,2,6,8-tetrahydrocyclopenta[3,4]pyrrolo[3,5-b]pyrazin-4-one], 0.0216 µM.
With `Cn1nc(-c2ccnc(-n3ncc4c5c(sc4c3=O)CCCC5)c2CO)cc(Nc2ccc(C(=O)N3CCOCC3)cn2)c1=O` [Example 258, 3-[3-(hydroxymethyl)-4-[1-methyl-5-[[5-(morpholine-4-carbonyl)-2-pyridyl]amino]-6-oxo-pyridazin-3-yl]-2-pyridyl]-6,7,8,9-tetrahydrobenzothiopheno[2,3-d]pyridazin-4-one] the figure was 0.646 µM; with `Cn1nc(-c2ccnc(N3CCc4c(sc5c4CC(C)(C)C5)C3=O)c2CO)cc(Nc2ccc(C(=O)N3CCOCC3)cn2)c1=O` [Example 259, 3-[3-(hydroxymethyl)-4-[1-methyl-5-[[5-(morpholine-4-carbonyl)-2-pyridyl]amino]-6-oxo-pyridazin-3-yl]-2-pyridyl]-7,7-dimethyl-1,2,6,8-tetrahydrocyclopenta[3,4]thieno[1,3-c]pyridin-4-one], 0.301 µM.
Take `Cc1cc(Nc2cc(-c3ccnc(N4CCn5c(cc6c5CC(C)(C)C6)C4=O)c3CO)cn(C)c2=O)n[nH]1` [Example 260, 3-[3-(hydroxymethyl)-4-[1-methyl-5-[(5-methyl-1H-pyrazol-3-yl)amino]-6-oxo-3-pyridyl]-2-pyridyl]-7,7-dimethyl-1,2,6,8-tetrahydrocyclopenta[3,4]pyrrolo[3,5-b]pyrazin-4-one]: the concentration for an effect of 70% (IC70) was determined as 0.0606 µM.
With `Cc1cc(Nc2cc(-c3ccnc(N4CCc5c(c(F)c6n5CCCC6)C4=O)c3CO)cn(C)c2=O)nn1C` [Example 261, 2-[4-[5-[(1,5-dimethylpyrazol-3-yl)amino]-1-methyl-6-oxo-3-pyridyl]-3-(hydroxymethyl)-2-pyridyl]-10-fluoro-3,4,6,7,8,9-hexahydropyrido[3,4-b]indolizin-1-one] the figure was 2.9 µM; with `Cc1cnc(Nc2cc(-c3ccnc(N4CCn5c(cc6c5CC(C)(C)C6)C4=O)c3CO)cn(C)c2=O)o1` [Example 262, 3-[3-(hydroxymethyl)-4-[1-methyl-5-[(5-methyloxazol-2-yl)amino]-6-oxo-3-pyridyl]-2-pyridyl]-7,7-dimethyl-1,2,6,8-tetrahydrocyclopenta[3,4]pyrrolo[3,5-b]pyrazin-4-one], 0.577 µM; with `Cn1nc(-c2ccnc(N3CCn4c5c(c(F)c4C3=O)CCCC5)c2CO)cc(Nc2ccncn2)c1=O` [Example 263, 10-fluoro-2-[3-(hydroxymethyl)-4-[1-methyl-6-oxo-5-(pyrimidin-4-ylamino)pyridazin-3-yl]-2-pyridyl]-3,4,6,7,8,9-hexahydropyrazino[1,2-a]indol-1-one], 2.2 µM.
With `Cn1cc(-c2ccnc(N3CCn4c(cc5c4CC(C)(C)C5)C3=O)c2CO)cc(Nc2ccnc(C(C)(C)O)n2)c1=O` [Example 264, 3-[3-(hydroxymethyl)-4-[5-[[2-(1-hydroxy-1-methyl-ethyl)pyrimidin-4-yl]amino]-1-methyl-6-oxo-3-pyridyl]-2-pyridyl]-7,7-dimethyl-1,2,6,8-tetrahydrocyclopenta[3,4]pyrrolo[3,5-b]pyrazin-4-one] the figure was 0.653 µM.
